Laboratory results reported in EP4043466B1, “PRC2 INHIBITORS” (Mirati Therapeutics, Inc., priority 2018, dated 2019).

What was measured:
[1] = test system: PRC2-mediated histone H3 methylation; test: Tri-Methyl Histone H3 (Lys 27) Sandwich ELISA in Pfeiffer cells: inhibition of PRC2-mediated histone H3 methylation; format: cell-based, human; details: Homo sapiens; Inhibition of EZH2-mediated histone H3 trimethylation; Pfeiffer cells (EZH2 A677G), 96 hours incubation
From the text: The Pfeiffer cell line was established from a […] from a patient having metastatic diffuse large B-cell lymphoma (DLBCL). This cell line expresses a mutant form of the EZH2 enzyme (A677G) that results in enhanced EZH2 activity leading to increased methylation of histone H3 Lys27. Increased trimethylation of histone H3 Lys27 is believed to be implicated in tumorgenesis and poor clinical prognosis in lymphomas (McCabe et al., (2012) Nature 492:108-112).
Inhibition of PRC2-mediated histone H3 methylation by compounds of Formula (I) was measured by ELISA using a Tri-Methyl Histone H3 (Lys 27) Sandwich ELISA Kit (Cell Signaling Tech #7866C) in accordance with the manufacturer's instructions. Briefly, Pfeiffer cells were cultured in RPMI medium supplemented with 10% fetal bovine serum and 1% penicillin and 1% streptomycin in 96 well culture plates at 37°C to a density of 8000 cells/90µl/well and the cells were harvested. A series of 3-fold serial dilutions of each test compound of Formula (I) were prepared in RPMI medium and added to the cells at final concentrations ranging from 1µM to 0.15 nM. The plates were incubated at 37°C for 96 hours.
After incubation, the cells were pelleted by centrifugation in a pre-cooled 4°C rotor at 1, 100 rpm for 10 min and the supernatant was removed by aspiration. The cell pellet was resuspended in 55µl of Lysis Buffer (0.4M HCl) and incubated on ice with periodic shaking for 30 minutes. The lysed cells were subjected to centrifugation at 4, 200 rpm for 10 min at 4°C and the supernatant containing acid-soluble proteins was collected and the remainder discarded. The acid-soluble proteins were brought to a neutral pH by the addition of 20 µl of Neutralization Buffer (1 M Sodium phosphate, dibasic (pH 12.5), 2.5 mM DTT and 1 mM PMSF) and the neutralized lysates were analyzed by ELISA.
A 65 µl aliquot of each cell lysate was added to a well of a microwell strip, the microwells were sealed using tape and incubated either at 37°C for two hours or at 4°C overnight. After incubation, the tape was removed at the microwells were washed four times using 200 µl of 1X Wash Buffer. To each washed microwell, a 100 µl aliquot of an antitrimethyl histone H3 Lys27 Detection Antibody solution was added and the microwells were incubated at 37°C for one hour. The Detection Antibody solution was removed by aspiration and the wells were washed four times each using 200 µl of 1X Wash Buffer.
A 100 µl aliquot of an HRP-linked secondary antibody was added to each well, the wells were sealed with tape and incubated at 37°C for 30 min. The HRP-linked secondary antibody solution was removed by aspiration and the wells were washed four times using 200 µl of 1X Wash Buffer. A 100 µl aliquot of a TMB substrate was added to each well, the wells were sealed with tape and incubated at 37°C for 10 min or 25°C for 30 min. The reaction was stopped by the addition of 100 µl aliquot of a STOP solution and the plate was shaken briefly. The degree of histone H3 trimethylation was determined using a spectrophotometric readout by measuring the absorbance at 450 nm and then calculating the amount of trimethylated histone H3. A = ≤100 nM; B = >100 nM - ≤500 nM; C = >500 nM and N.D. = not determined.

[2] = target: purified human, His-tagged PRC2 complex (Homo sapiens, UniProt O75530+Q15910); test: Hot Spot HMT assay: inhibition of PRC2 enzymatic activity (transfer of tritiated methyl from SAM to core histone, filter binding); format: biochemical; details: Inhibition of PRC2-mediated enzymatic activity; 10 nM PRC2 complex, 0.05 mg/ml core histone H3, 1 uM 3H-SAM, 1 hr at 30°C
Chain of purified human, His-tagged PRC2 complex (Q15910 whole entry): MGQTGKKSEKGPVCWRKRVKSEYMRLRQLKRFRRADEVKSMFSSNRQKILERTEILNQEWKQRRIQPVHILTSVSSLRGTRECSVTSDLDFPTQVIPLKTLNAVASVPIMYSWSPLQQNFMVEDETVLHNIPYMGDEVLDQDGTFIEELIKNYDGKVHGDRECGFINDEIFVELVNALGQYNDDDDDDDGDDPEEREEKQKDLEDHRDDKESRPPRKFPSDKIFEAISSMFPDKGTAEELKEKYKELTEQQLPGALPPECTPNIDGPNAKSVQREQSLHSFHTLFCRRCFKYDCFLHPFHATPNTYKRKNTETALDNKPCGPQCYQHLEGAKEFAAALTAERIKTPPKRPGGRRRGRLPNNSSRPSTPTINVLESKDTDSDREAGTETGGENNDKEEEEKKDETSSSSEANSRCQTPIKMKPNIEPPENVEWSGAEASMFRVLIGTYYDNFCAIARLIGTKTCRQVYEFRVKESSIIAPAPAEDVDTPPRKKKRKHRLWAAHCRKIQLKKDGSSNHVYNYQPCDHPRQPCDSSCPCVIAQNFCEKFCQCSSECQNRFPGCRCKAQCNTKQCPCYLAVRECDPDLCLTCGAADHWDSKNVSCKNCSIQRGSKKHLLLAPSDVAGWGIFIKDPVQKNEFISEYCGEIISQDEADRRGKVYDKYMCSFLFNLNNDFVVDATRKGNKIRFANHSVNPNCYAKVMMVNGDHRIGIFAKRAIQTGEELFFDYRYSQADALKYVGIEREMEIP
Chain of purified human, His-tagged PRC2 complex (O75530 whole entry): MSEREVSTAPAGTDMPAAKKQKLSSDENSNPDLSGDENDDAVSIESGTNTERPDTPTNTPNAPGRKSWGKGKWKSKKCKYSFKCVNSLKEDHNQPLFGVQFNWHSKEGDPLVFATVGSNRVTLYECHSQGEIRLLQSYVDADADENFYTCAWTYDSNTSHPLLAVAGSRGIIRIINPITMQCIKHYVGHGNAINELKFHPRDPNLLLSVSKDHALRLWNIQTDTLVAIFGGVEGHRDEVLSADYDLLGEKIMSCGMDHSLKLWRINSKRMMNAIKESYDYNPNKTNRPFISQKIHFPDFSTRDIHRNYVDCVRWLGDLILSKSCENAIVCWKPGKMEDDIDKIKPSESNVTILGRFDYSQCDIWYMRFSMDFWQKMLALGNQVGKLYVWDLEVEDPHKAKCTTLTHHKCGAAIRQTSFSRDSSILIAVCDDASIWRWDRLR
Chain of purified human, His-tagged PRC2 complex (Q15022 whole entry partner): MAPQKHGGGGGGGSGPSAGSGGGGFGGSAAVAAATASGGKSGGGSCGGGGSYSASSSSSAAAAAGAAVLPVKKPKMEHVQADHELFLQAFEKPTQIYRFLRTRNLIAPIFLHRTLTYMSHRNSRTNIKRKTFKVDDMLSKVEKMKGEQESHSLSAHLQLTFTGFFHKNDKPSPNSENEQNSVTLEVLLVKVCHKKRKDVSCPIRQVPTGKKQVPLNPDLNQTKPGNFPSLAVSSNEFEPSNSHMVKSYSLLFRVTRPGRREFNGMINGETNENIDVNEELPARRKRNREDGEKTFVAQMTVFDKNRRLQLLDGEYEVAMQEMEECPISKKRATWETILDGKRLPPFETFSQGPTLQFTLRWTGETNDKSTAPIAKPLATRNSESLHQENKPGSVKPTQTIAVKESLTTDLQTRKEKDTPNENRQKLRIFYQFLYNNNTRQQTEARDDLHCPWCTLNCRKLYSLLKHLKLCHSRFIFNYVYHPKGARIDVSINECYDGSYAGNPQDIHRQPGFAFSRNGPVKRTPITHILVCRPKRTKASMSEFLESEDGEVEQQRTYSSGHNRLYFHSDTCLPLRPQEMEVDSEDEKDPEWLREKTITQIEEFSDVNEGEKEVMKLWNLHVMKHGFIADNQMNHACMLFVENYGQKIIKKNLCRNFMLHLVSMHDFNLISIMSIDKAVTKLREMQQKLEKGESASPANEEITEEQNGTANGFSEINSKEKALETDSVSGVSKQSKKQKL
Chain of purified human, His-tagged PRC2 complex (Q6ZN18 whole entry partner): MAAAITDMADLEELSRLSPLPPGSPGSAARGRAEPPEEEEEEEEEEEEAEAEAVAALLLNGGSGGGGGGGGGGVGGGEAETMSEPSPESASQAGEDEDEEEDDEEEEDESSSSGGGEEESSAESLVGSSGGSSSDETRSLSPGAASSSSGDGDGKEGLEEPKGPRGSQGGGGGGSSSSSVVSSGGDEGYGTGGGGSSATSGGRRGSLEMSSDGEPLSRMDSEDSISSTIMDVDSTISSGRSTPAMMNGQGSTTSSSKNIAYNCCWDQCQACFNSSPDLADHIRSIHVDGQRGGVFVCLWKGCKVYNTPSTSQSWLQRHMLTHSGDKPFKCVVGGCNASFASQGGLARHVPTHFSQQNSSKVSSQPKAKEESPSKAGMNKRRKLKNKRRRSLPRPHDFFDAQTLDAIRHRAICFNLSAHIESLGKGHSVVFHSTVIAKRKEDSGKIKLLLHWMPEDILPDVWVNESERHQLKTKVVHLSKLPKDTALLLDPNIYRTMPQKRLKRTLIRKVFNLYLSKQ
Chain of purified human, His-tagged PRC2 complex (Q09028 whole entry partner): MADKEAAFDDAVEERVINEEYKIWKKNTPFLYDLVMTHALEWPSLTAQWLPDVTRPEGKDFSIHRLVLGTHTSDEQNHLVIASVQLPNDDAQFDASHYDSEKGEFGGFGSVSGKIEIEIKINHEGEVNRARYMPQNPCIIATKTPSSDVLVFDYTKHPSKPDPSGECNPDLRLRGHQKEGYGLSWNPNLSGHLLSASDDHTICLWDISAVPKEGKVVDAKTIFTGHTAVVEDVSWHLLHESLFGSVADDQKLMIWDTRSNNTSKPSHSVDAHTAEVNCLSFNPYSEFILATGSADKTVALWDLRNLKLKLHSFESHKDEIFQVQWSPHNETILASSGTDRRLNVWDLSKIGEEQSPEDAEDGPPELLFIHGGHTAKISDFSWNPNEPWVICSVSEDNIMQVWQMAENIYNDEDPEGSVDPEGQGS
Outline: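 Serial compound dilutions starting at 1.0 µM were pre-incubated 20 min at 30°C with 10 nM complex (His-EZH2, Flag-EED, His-SUZ12, His-AEBP2, His-RbAp48) and 0.05 mg/ml core H3. Reaction ran 1 hr at 30°C after adding 1 uM [3H]-SAM; scintillation counting followed filtration.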

[3] = test system: Karpas 422 cells; test: Karpas 422 cell viability, CTG (Cell Titre Glo) assay; format: cell-based, human; details: Homo sapiens; Inhibition of proliferation of Karpas 422 cells (EZH2 Y641N); viability measured Day 4, Day 7 or Day 11, time point of the tabulated values not stated
Outline: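 CellTiter-Glo viability IC50s taken at Day 4, Day 7 and Day 11 of continuous compound exposure (3-fold series, 10µM top, 1.5nM lowest) in RPMI/20% FBS at 37 °C. Y641N-mutant EZH2 lymphoma line seeded at 1000 cells per well; medium and compound replaced on Day 7 for Day 11 read.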

Structure (SMILES)	IC50 [1] [nM]	IC50 [2] [nM]	IC50 [3] [nM]
N#Cc1cn2c(NCc3c(F)ccc4c3CCO4)ncc(-c3ccc(CN4CC5CC5C4)cc3)c2n1 (stereo not shown) [Example 52, 8-(4-((3-azabicyclo[3.1.0]hexan-3-yl)methyl)phenyl)-5-(((5-fluoro-2,3-dihydrobenzofuran-4-yl)methyl)amino)imidazo[1,2-c]pyrimidine-2-carbonitrile]	≤ 100	< 100	
N#Cc1cn2c(NCc3c(F)ccc4c3CCO4)ncc(-c3ccc(CN4CC(F)(F)C4)cc3)c2n1 [Example 51, 8-(4-((3,3-difluoroazetidin-1-yl)methyl)phenyl)-5-(((5-fluoro-2,3-dihydrobenzofuran-4-yl)methyl)amino)imidazo[1,2-c]pyrimidine-2-carbonitrile]	≤ 100	< 100	
N#Cc1cn2c(NCc3c(F)ccc4c3CCO4)ncc(-c3ccccc3)c2n1 [Example 46, 5-(((5-fluoro-2,3-dihydrobenzofuran-4-yl)methyl)amino)-8-phenylimidazo[1,2-c]pyrimidine-2-carbonitrile]	100 to 500	< 100	
CN(C)Cc1ccc(-c2cnc(NCc3c(F)ccc4c3CCO4)n3cc(C#N)nc23)cc1F [Example 63, 8-(4-((dimethylamino)methyl)-3-fluorophenyl)-5-(((5-fluoro-2,3-dihydrobenzofuran-4-yl)methyl)amino)imidazo[1,2-c]pyrimidine-2-carbonitrile]	≤ 100	< 100	
N#Cc1cn2c(NCc3c(F)ccc4c3CCO4)ncc(-c3cnn4c3CCC4)c2n1 [Example 80, 8-(5,8-dihydro-4H-pyrrolo[1,2-b]pyrazol-3-yl)-5-(((5-fluoro-2,3-dihydrobenzofuran-4-yl)methyl)amino)imidazo[1,2-c]pyrimidine-2-carbonitrile]	100 to 500	< 100	
CN(C)Cc1ccc(-c2cnc(NCc3c(F)ccc4c3CCO4)n3cc(C#N)nc23)c(F)c1F [Example 37, 8-(4-((dimethylamino)methyl)-2,3-difluorophenyl)-5-(((5-fluoro-2,3-dihydrobenzofuran-4-yl)methyl)amino)imidazo[1,2-c]pyrimidine-2-carbonitrile]		< 100	≤ 250
Cc1nn(C[C@H](C)O)c(C)c1-c1cnc(NCc2c(F)ccc3c2CCO3)n2cc(C#N)nc12 [Example 65, (S)-5-(((5-fluoro-2,3-dihydrobenzofuran-4-yl)methyl)amino)-8-(1-(2-hydroxypropyl)-3,5-dimethyl-1H-pyrazol-4-yl)imidazo[1,2-c]pyrimidine-2-carbonitrile]		100 to 500	> 500
Cc1cncc(-c2cnc(NCc3c(F)ccc4c3CCO4)n3cc(C#N)nc23)c1 [Example 96, 5-(((5-fluoro-2,3-dihydrobenzofuran-4-yl)methyl)amino)-8-(5-methylpyridin-3-yl)imidazo[1,2-c]pyrimidine-2-carbonitrile]		< 100	250 to 500
N#Cc1cn2c(NCc3c(F)ccc4c3CCO4)ncc(-c3cnn(C4COC4)c3)c2n1 [Example 106, 5-(((5-fluoro-2,3-dihydrobenzofuran-4-yl)methyl)amino)-8-(1-(oxetan-3-yl)-1H-pyrazol-4-yl)imidazo[1,2-c]pyrimidine-2-carbonitrile]		100 to 500	> 500
Cc1cc(CN(C)C)c(F)cc1-c1cnc(NCc2c(F)ccc3c2CCO3)n2cc(C#N)nc12 [Example 84, 8-(4-((dimethylamino)methyl)-5-fluoro-2-methylphenyl)-5-(((5-fluoro-2,3-dihydrobenzofuran-4-yl)methyl)amino)imidazo[1,2-c]pyrimidine-2-carbonitrile]		100 to 500	≤ 250
Cc1cc(-c2cnc(NCc3c(F)ccc4occc34)n3cc(C(=O)O)nc23)n(C)n1 [Example 9, 8-(1,3-dimethyl-1H-pyrazol-5-yl)-5-(((5-fluorobenzofuran-4-yl)methyl)amino)imidazo[1,2-c]pyrimidine-2-carboxylic acid]		< 100	> 500
N#Cc1cn2c(NCc3c(F)ccc4c3CCO4)ncc(-c3ccc(CN4CCC(F)C4)cc3)c2n1 (stereo not shown) [Example 54, 5-(((5-fluoro-2,3-dihydrobenzofuran-4-yl)methyl)amino)-8-(4-((3-fluoropyrrolidin-1-yl)methyl)phenyl)imidazo[1,2-c]pyrimidine-2-carbonitrile]		< 100	≤ 250
Cc1cc(-c2cnc(NCc3c(F)ccc4c3CCO4)n3cc(C#N)nc23)cnn1 [Example 41, 5-(((5-fluoro-2,3-dihydrobenzofuran-4-yl)methyl)amino)-8-(6-methylpyridazin-4-yl)imidazo[1,2-c]pyrimidine-2-carbonitrile]		< 100	≤ 250

The next lines start with the values.

IC50 [1] [nM]	IC50 [2] [nM]	IC50 [3] [nM]	Structure (SMILES)
≤ 100	< 100		COc1cc(-c2cnc(NCc3c(F)ccc4c3CCO4)n3cc(C#N)nc23)c(F)cn1 [Example 123, 5-(((5-fluoro-2,3-dihydrobenzofuran-4-yl)methyl)amino)-8-(5-fluoro-2-methoxypyridin-4-yl)imidazo[1,2-c]pyrimidine-2-carbonitrile]
≤ 100	< 100		Cn1nc(C(F)(F)F)cc1-c1cnc(NCc2c(F)ccc3c2CCO3)n2cc(C#N)nc12 [Example 111, 5-(((5-fluoro-2,3-dihydrobenzofuran-4-yl)methyl)amino)-8-(1-methyl-3-(trifluoromethyl)-1H-pyrazol-5-yl)imidazo[1,2-c]pyrimidine-2-carbonitrile]
≤ 100	< 100		Cn1nncc1-c1cnc(NCc2c(F)ccc3c2CCO3)n2cc(C#N)nc12 [Example 143, 5-(((5-fluoro-2,3-dihydrobenzofuran-4-yl)methyl)amino)-8-(1-methyl-1H-1,2,3-triazol-5-yl)imidazo[1,2-c]pyrimidine-2-carbonitrile]
100 to 500	< 100		N#Cc1cn2c(NCc3c(F)ccc4c3CCO4)ncc(-c3cccnc3CO)c2n1 [Example 148, 5-(((5-fluoro-2,3-dihydrobenzofuran-4-yl)methyl)amino)-8-(2-(hydroxymethyl)pyridin-3-yl)imidazo[1,2-c]pyrimidine-2-carbonitrile]
≤ 100	< 100		N#Cc1cn2c(NCc3c(F)ccc4c3CCO4)ncc(-c3ccc(CN4CC(O)C4)cc3)c2n1 [Example 150, 5-(((5-fluoro-2,3-dihydrobenzofuran-4-yl)methyl)amino)-8-(4-((3-hydroxyazetidin-1-yl)methyl)phenyl)imidazo[1,2-c]pyrimidine-2-carbonitrile]
100 to 500	100 to 500		Cc1ccc(C#N)cc1-c1cnc(NCc2c(F)ccc3c2CCO3)n2cc(C#N)nc12 [Example 177, 8-(5-cyano-2-methylphenyl)-5-(((5-fluoro-2,3-dihydrobenzofuran-4-yl)methyl)amino)imidazo[1,2-c]pyrimidine-2-carbonitrile]
	< 100	> 500	CCOc1ncccc1-c1cnc(NCc2c(F)ccc3c2CCO3)n2cc(C#N)nc12 [Example 124, 8-(2-ethoxypyridin-3-yl)-5-(((5-fluoro-2,3-dihydrobenzofuran-4-yl)methyl)amino)imidazo[1,2-c]pyrimidine-2-carbonitrile]
